Experimental data reported in patent US20080161336A1, “Orally bioavailable CCI-779 formulations” (Wyeth, priority 2005, published 2008).

Key:
[1] = BCS classification system; type: physicochemical
[2] = system: histologically diverse tumor cells; details: in vitro, cited from earlier work
[3] = Stability of CCI-779 (aqueous, oxidation, hydroalcoholic granulation solution); type: physicochemical
Text: One obstacle towards the formulation of CCI-779 is its poor aqueous dissolution and low oral bioavailability. […] A CCI-779 formulation was developed that employed a wet granulation manufacturing process. See US Published Patent Application No. US-2004-0077677-A1. This process involved preparation of a hydroalcoholic granulation solution of CCI-779. Further, although the resulting tablets were stable and bioavailable, the preparation of the hydroalcoholic solution was very tedious.

[4] = Bioavailability study: safety (adverse events, laboratory abnormalities, vital signs); type: in vivo, human
Text: On day 1 of each of the 3 study periods, the subjects received a single oral dose of 1 of 4 treatments (treatments A, B, C, or reference).
On day 1 of each of the 3 study periods, the subjects received a single oral dose of 1 of 4 treatments (A, B, C, or reference).

[5] = Water solubility; type: physicochemical
[6] = Partition coefficient in 1-octanol/water system; type: physicochemical

COC1C[C@@H]2CC[C@@H](C)[C@@](O)(O2)C(=O)C(=O)N2CCCC[C@H]2C(=O)O[C@H]([C@H](C)CC2CC[C@@H](OC(=O)C(C)(CO)CO)[C@H](OC)C2)CC(=O)[C@H](C)/C=C(\C)[C@@H](O)[C@@H](OC)C(=O)[C@H](C)C[C@H](C)/C=C/C=C/C=C/1C (stereo partly drawn) [CCI-779, Rapamycin 42-ester with 3-hydroxy-2-(hydroxymethyl)-2-methylpropionic acid]
BCS classification [1]: class II | growth of tumor cells ([2]; CNS cancer, leukemia (T-cell), breast cancer, prostate cancer, melanoma lines among the most sensitive): inhibit the growth | cell cycle effect [2]: arrested cells in the G1 phase | aqueous stability [3]: aqueous instability | stability of hydroalcoholic granulation solution of CCI-779 ([3]; after its preparation): precipitating within one day | severity of treatment-emergent AEs ([4]; all 45 treatment-emergent AEs): mild | subjects with aminotransferase elevations ([4]; all treatments, 4 subjects): 10% | subjects with white blood cells in the urine ([4]; all treatments, 5 subjects): 13% | deaths or other serious adverse events ([4]; during the study): No deaths or other serious adverse events occurred | vital sign measurements, electrocardiogram results, physical examination findings ([4]; in vivo): No clinically significant trends | subjects with clinically significant laboratory abnormalities after dose administration ([4]; number of subjects, all treatments): 13 | AEs considered by the investigator to be related to CCI-779 treatment ([4]; number of the 45 AEs): 16 | subjects with at least 1 treatment-emergent adverse event (AE) ([4]; of the 40 subjects who received CCI-779, all treatments): 48% | solubility [5]: < 1 µg/mL | Log PC [6]: ≥ 4.1
